Results on 9 compounds are retold here after patent US10344060B2 (priority 2013, dated 2019).

Holding throughout (test): cell-based
One experiment addresses hNav1.5 (Homo sapiens, UniProt Q14524). The conditions noted are these: IonWorks Quattro; Table 6; read-out: IC50 (μM) Nav1.5. (The patch-clamp technique gives a direct electrical read-out from membranes.)
For another experiment, the target named is hNav1.4 (Homo sapiens, UniProt P35499). It is filed as cell-based. The conditions noted are these: Table 6; for IC50: IonWorks Quattro, read-out: IC50 (μM) Nav1.4; for Nav1.4/Nav1.7: ratio of IonWorks Quattro IC50 values.
The target in the next experiment is hNav1.7 (Homo sapiens, UniProt Q15858). The conditions noted are these: read-out: IC50 (μM) Nav1.7.
hNav1.7, sequence (Q15858 whole entry): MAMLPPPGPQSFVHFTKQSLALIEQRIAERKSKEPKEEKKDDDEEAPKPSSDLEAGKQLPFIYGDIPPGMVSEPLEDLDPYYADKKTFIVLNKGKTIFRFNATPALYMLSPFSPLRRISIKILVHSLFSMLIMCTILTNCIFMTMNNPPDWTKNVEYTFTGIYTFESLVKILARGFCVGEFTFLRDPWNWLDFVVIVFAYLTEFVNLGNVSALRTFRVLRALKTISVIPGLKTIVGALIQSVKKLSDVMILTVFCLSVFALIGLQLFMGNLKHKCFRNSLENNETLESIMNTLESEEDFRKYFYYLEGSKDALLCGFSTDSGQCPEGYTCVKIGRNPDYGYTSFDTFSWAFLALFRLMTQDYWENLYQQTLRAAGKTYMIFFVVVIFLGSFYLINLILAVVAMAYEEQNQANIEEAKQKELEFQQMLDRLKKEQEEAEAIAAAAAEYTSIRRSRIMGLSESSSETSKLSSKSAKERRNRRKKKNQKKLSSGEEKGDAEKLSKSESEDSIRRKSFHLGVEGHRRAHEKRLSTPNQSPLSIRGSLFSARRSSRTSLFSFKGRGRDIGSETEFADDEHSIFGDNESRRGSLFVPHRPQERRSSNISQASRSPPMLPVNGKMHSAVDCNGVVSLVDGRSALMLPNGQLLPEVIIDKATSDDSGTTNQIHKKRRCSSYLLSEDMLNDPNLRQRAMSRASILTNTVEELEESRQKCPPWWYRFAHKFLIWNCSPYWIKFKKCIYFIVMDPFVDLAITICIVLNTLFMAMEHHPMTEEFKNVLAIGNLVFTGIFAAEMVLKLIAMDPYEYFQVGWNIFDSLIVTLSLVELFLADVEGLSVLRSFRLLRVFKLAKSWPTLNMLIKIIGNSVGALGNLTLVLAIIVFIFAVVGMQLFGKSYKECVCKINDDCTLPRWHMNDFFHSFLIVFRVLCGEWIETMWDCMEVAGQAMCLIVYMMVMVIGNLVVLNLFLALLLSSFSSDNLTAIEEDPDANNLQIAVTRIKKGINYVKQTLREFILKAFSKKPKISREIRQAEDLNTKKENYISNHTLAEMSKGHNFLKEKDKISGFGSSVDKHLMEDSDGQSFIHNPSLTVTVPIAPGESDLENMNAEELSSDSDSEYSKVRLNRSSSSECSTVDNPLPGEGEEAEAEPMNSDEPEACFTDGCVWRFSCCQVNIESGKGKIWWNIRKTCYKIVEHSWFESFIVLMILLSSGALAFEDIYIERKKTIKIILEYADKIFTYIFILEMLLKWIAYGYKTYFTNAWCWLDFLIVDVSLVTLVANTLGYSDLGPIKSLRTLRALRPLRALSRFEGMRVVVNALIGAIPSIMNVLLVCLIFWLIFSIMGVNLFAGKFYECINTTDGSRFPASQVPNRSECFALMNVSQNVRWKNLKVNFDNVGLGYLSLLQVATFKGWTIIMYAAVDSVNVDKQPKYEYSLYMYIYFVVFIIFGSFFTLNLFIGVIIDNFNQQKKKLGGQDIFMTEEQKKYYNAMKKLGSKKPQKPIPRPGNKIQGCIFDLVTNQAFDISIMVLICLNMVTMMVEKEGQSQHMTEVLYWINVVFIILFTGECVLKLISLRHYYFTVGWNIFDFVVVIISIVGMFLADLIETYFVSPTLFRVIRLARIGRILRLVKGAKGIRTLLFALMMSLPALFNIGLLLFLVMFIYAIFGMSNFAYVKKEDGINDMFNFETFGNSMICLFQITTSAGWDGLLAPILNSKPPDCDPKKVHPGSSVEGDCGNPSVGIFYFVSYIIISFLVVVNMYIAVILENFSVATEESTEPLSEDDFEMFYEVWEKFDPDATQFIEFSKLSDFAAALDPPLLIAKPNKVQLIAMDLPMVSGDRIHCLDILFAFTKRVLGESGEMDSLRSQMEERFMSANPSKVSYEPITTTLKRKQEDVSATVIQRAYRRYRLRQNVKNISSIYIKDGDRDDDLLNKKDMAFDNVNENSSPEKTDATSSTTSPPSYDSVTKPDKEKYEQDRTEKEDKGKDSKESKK
The next experiment addresses hNav1.3 (Homo sapiens, UniProt Q9NY46). The conditions noted are these: IonWorks Quattro; Table 6; read-out: IC50 (μM) Nav1.3.

Bounds are passed on as bounds.

hNav1.5, sequence (Q14524 whole entry): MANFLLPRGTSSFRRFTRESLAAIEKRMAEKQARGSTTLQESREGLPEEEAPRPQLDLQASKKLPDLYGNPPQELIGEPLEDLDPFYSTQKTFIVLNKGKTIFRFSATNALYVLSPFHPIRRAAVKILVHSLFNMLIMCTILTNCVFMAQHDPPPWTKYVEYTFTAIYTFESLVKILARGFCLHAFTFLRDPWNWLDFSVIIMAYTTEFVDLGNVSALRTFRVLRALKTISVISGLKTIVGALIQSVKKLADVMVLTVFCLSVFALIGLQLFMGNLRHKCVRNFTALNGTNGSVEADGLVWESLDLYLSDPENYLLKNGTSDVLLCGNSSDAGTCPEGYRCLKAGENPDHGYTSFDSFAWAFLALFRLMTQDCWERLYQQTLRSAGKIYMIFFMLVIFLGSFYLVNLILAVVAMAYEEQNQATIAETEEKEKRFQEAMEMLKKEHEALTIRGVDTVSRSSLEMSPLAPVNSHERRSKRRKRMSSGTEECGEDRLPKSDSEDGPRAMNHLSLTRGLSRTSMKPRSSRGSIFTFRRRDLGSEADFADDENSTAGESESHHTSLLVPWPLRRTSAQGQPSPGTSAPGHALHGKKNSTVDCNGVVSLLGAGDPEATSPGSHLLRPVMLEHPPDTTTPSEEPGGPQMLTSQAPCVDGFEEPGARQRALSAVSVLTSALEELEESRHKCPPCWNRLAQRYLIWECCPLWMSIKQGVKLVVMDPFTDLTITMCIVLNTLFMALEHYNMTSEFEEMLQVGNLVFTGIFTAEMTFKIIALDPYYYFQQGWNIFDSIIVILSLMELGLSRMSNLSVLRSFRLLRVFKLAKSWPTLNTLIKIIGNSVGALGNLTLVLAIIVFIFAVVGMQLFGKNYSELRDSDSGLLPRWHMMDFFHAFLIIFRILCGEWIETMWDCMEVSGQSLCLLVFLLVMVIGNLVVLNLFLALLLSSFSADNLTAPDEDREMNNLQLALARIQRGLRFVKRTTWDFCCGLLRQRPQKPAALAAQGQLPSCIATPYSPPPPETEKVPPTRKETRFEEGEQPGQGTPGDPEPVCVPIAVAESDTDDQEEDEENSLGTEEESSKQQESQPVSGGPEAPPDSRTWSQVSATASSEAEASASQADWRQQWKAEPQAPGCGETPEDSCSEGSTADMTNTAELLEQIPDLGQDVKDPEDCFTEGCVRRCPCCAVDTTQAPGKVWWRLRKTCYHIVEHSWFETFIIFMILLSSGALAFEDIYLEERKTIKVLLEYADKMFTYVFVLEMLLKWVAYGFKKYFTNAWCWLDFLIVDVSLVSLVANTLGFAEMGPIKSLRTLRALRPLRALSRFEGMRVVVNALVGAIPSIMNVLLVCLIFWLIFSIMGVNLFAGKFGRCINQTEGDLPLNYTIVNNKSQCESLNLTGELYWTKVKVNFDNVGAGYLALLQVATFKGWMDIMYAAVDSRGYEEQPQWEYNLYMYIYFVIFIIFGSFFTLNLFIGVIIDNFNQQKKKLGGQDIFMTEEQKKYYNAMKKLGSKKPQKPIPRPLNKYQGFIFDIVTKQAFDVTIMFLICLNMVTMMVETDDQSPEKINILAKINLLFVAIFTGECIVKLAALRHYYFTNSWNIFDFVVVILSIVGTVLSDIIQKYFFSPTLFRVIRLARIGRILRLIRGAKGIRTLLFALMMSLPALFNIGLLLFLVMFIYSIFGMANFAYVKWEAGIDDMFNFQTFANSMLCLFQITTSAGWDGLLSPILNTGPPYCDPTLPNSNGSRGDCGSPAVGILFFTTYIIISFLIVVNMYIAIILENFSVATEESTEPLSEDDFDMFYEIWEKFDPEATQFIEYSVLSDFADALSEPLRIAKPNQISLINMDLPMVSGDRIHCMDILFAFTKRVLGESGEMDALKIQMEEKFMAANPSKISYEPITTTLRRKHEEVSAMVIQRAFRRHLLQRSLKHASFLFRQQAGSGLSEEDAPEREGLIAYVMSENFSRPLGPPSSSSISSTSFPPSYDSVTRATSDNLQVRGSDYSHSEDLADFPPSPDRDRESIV

One may read the IC50 as the concentration that gives 50% inhibition. For the compound `CC[C@H](C)[C@H](NC(=O)[C@@H](NC(=O)[C@H](CCCCN)NC(=O)[C@H](CCCNC(=N)N)NC(=O)[C@@H]1CSSC[C@@H]2NC(=O)[C@H](C)NC(=O)[C@H](CCCNC(=N)N)NC(=O)[C@H](CCCCN)NC(=O)[C@H](CO)NC(=O)[C@H](CC(=O)O)NC(=O)[C@@H]3CSSC[C@H](NC(=O)[C@H](CCCNC(=N)N)NC(=O)[C@H](CC(C)C)NC(=O)CNC(=O)[C@H](CCC(=O)O)NC(=O)[C@H](CSSC[C@H](NC(=O)[C@@H](N)Cc4ccc(O)cc4)C(=O)N[C@@H](CCC(N)=O)C(=O)N[C@@H](CCCCN)C(=O)N[C@@H](Cc4c[nH]c5ccccc45)C(=O)N[C@@H](CCSC)C(=O)N[C@@H](Cc4c[nH]c5ccccc45)C(=O)N[C@@H](CCCNC(=N)N)C(=O)N3)NC2=O)C(=O)N[C@@H](CCCCN)C(=O)N[C@@H](CC(C)C)C(=O)N[C@@H](Cc2c[nH]c3ccccc23)C(=O)N1)[C@@H](C)CC)C(N)=O` [compound 96], the IC50 on hNav1.5 was determined as 1.7 µM; on hNav1.4, 0.14 µM; on hNav1.7, 0.018 µM; at hNav1.3, 0.05 µM. The Nav1.4/Nav1.7 on hNav1.4 is on record as 7.

On to `CC[C@H](C)[C@H](NC(=O)[C@@H](NC(=O)[C@H](CCCCN)NC(=O)[C@H](CCCNC(=N)N)NC(=O)[C@@H]1CSSC[C@@H]2NC(=O)[C@H](C)NC(=O)[C@H](CCCNC(=N)N)NC(=O)[C@H](CCCCN)NC(=O)[C@H](CO)NC(=O)[C@H](CC(=O)O)NC(=O)[C@@H]3CSSC[C@H](NC(=O)[C@H](CCCNC(=N)N)NC(=O)[C@H](CC(C)C)NC(=O)CNC(=O)[C@H](CCC(=O)O)NC(=O)[C@H](CSSC[C@H](NC(=O)[C@@H](N)CCCCN)C(=O)N[C@@H](CCC(N)=O)C(=O)N[C@@H](CCCCN)C(=O)N[C@@H](Cc4c[nH]c5ccccc45)C(=O)N[C@@H](CCSC)C(=O)N[C@@H](Cc4c[nH]c5ccccc45)C(=O)N[C@@H]([C@@H](C)O)C(=O)N3)NC2=O)C(=O)N[C@@H](CCCCN)C(=O)N[C@@H](CC(C)C)C(=O)N[C@@H](Cc2c[nH]c3ccccc23)C(=O)N1)[C@@H](C)CC)C(N)=O` [compound 71], for which the IC50 on hNav1.5 was found to be 2.3 µM; at hNav1.4 it was 0.06 µM; at hNav1.7, 0.005 µM; at hNav1.3 it was 0.05 µM. The Nav1.4/Nav1.7 on hNav1.4 is 12.

Consider `CC[C@H](C)[C@H](NC(=O)[C@H](Cc1cccc2ccccc12)NC(=O)[C@H](CCCCN)NC(=O)[C@H](CCCNC(=N)N)NC(=O)[C@@H]1CSSC[C@@H]2NC(=O)[C@H](C)NC(=O)[C@H](CCCNC(=N)N)NC(=O)[C@H](CCCCN)NC(=O)[C@H](CO)NC(=O)[C@H](CC(=O)O)NC(=O)[C@@H]3CSSC[C@H](NC(=O)[C@H](CCCNC(=N)N)NC(=O)[C@H](CC(C)C)NC(=O)CNC(=O)[C@H](CCC(=O)O)NC(=O)[C@H](CSSC[C@H](NC(=O)[C@@H](N)Cc4ccc(O)cc4)C(=O)N[C@@H](CCC(N)=O)C(=O)N[C@@H](CCCCN)C(=O)N[C@@H](Cc4c[nH]c5ccccc45)C(=O)N[C@@H](CCSC)C(=O)N[C@@H](Cc4c[nH]c5ccccc45)C(=O)N[C@@H]([C@@H](C)O)C(=O)N3)NC2=O)C(=O)N[C@@H](CCCCN)C(=O)N[C@@H](CC(C)C)C(=O)N[C@@H](Cc2c[nH]c3ccccc23)C(=O)N1)C(N)=O` [compound 46], for which the IC50 was 3.6 µM on hNav1.5, 0.1 µM on hNav1.4, 0.006 µM at hNav1.7 and 0.06 µM on hNav1.3. In addition, the Nav1.4/Nav1.7 at hNav1.4 is given as 17.

In the case of `CC[C@H](C)[C@H](NC(=O)[C@@H](NC(=O)[C@H](CCCCN)NC(=O)[C@H](CCCNC(=N)N)NC(=O)[C@@H]1CSSC[C@@H]2NC(=O)[C@H](C)NC(=O)[C@H](CCCNC(=N)N)NC(=O)[C@H](CCCCN)NC(=O)[C@H](CO)NC(=O)[C@H](CC(=O)O)NC(=O)[C@@H]3CSSC[C@H](NC(=O)[C@H](CCCNC(=N)N)NC(=O)[C@H](CC(C)C)NC(=O)CNC(=O)[C@H](CCC(=O)O)NC(=O)[C@H](CSSC[C@H](NC(=O)[C@@H](N)Cc4ccc(O)cc4)C(=O)N[C@@H](CCC(N)=O)C(=O)N[C@@H](CCCCN)C(=O)N[C@@H](Cc4c[nH]c5ccccc45)C(=O)N[C@@H](C)C(=O)N[C@@H](Cc4c[nH]c5ccccc45)C(=O)N[C@@H]([C@@H](C)O)C(=O)N3)NC2=O)C(=O)N[C@@H](CCCCN)C(=O)N[C@@H](CC(C)C)C(=O)N[C@@H](Cc2c[nH]c3ccccc23)C(=O)N1)[C@@H](C)CC)C(N)=O` [compound 7], the IC50 at hNav1.5 was > 5 µM; at hNav1.4 it was 0.28 µM; at hNav1.7 it was 0.094 µM; on hNav1.3, 0.16 µM. On hNav1.4, the Nav1.4/Nav1.7 is listed as 3.

On to `CC[C@H](C)[C@H](NC(=O)[C@@H](NC(=O)[C@H](CCCCN)NC(=O)[C@H](CCCNC(=N)N)NC(=O)[C@@H]1CSSC[C@@H]2NC(=O)[C@H](C)NC(=O)[C@H](CCCNC(=N)N)NC(=O)[C@H](CCCCN)NC(=O)[C@H](CO)NC(=O)[C@H](CC(=O)O)NC(=O)[C@@H]3CSSC[C@H](NC(=O)[C@H](CCCNC(=N)N)NC(=O)[C@H](CC(C)C)NC(=O)CNC(=O)[C@H](CCC(=O)O)NC(=O)[C@H](CSSC[C@H](NC(=O)[C@H](C)N)C(=O)N[C@@H](CCC(N)=O)C(=O)N[C@@H](CCCCN)C(=O)N[C@@H](Cc4c[nH]c5ccccc45)C(=O)N[C@@H](CCSC)C(=O)N[C@@H](Cc4c[nH]c5ccccc45)C(=O)N[C@@H]([C@@H](C)O)C(=O)N3)NC2=O)C(=O)N[C@@H](CCCCN)C(=O)N[C@@H](CC(C)C)C(=O)N[C@@H](Cc2c[nH]c3ccccc23)C(=O)N1)[C@@H](C)CC)C(N)=O` [compound 3], for which the IC50 at hNav1.5 was 3.1 µM; on hNav1.4, 0.07 µM; at hNav1.7, 0.004 µM; on hNav1.3 it was 0.04 µM. Further, on hNav1.4, the Nav1.4/Nav1.7 is listed as 18.

Take `CC[C@H](C)[C@H](NC(=O)[C@@H](NC(=O)[C@H](CCCCN)NC(=O)[C@H](CCCNC(=N)N)NC(=O)[C@@H]1CSSC[C@@H]2NC(=O)[C@H](C)NC(=O)[C@H](C)NC(=O)[C@H](CCCCN)NC(=O)[C@H](CO)NC(=O)[C@H](CC(=O)O)NC(=O)[C@@H]3CSSC[C@H](NC(=O)[C@H](CCCNC(=N)N)NC(=O)[C@H](CC(C)C)NC(=O)CNC(=O)[C@H](CCC(=O)O)NC(=O)[C@H](CSSC[C@H](NC(=O)[C@@H](N)Cc4ccc(O)cc4)C(=O)N[C@@H](CCC(N)=O)C(=O)N[C@@H](CCCCN)C(=O)N[C@@H](Cc4c[nH]c5ccccc45)C(=O)N[C@@H](CCSC)C(=O)N[C@@H](Cc4c[nH]c5ccccc45)C(=O)N[C@@H]([C@@H](C)O)C(=O)N3)NC2=O)C(=O)N[C@@H](CCCCN)C(=O)N[C@@H](CC(C)C)C(=O)N[C@@H](Cc2c[nH]c3ccccc23)C(=O)N1)[C@@H](C)CC)C(N)=O` [compound 13]: the IC50 is > 5 µM at hNav1.5, 0.57 µM on hNav1.4, 0.079 µM on hNav1.7 and 0.3 µM at hNav1.3. On hNav1.4, the Nav1.4/Nav1.7 was 7.

`CC[C@H](C)[C@H](NC(=O)[C@@H](NC(=O)[C@H](CCCNC(=N)N)NC(=O)[C@H](CCCNC(=N)N)NC(=O)[C@@H]1CSSC[C@@H]2NC(=O)[C@H](C)NC(=O)[C@H](CCCNC(=N)N)NC(=O)[C@H](CCCCN)NC(=O)[C@H](CO)NC(=O)[C@H](CC(=O)O)NC(=O)[C@@H]3CSSC[C@H](NC(=O)[C@H](CCCNC(=N)N)NC(=O)[C@H](CC(C)C)NC(=O)CNC(=O)[C@H](CCC(=O)O)NC(=O)[C@H](CSSC[C@H](NC(=O)[C@@H](N)Cc4ccc(O)cc4)C(=O)N[C@@H](CCC(N)=O)C(=O)N[C@@H](CCCCN)C(=O)N[C@@H](Cc4c[nH]c5ccccc45)C(=O)N[C@@H](CCSC)C(=O)N[C@@H](Cc4c[nH]c5ccccc45)C(=O)N[C@@H]([C@@H](C)O)C(=O)N3)NC2=O)C(=O)N[C@@H](CCCCN)C(=O)N[C@@H](CC(C)C)C(=O)N[C@@H](Cc2c[nH]c3ccccc23)C(=O)N1)[C@@H](C)CC)C(N)=O` [compound 107]: the IC50 on hNav1.5 is > 5 µM; on hNav1.4, 0.23 µM; on hNav1.7, 0.028 µM; at hNav1.3, 0.1 µM. For the same compound, at hNav1.4, the Nav1.4/Nav1.7 is recorded as 8.

Take `CC[C@H](C)[C@H](NC(=O)[C@@H](NC(=O)[C@H](CCCCN)NC(=O)[C@H](CCCNC(=N)N)NC(=O)[C@@H]1CSSC[C@@H]2NC(=O)[C@H](C)NC(=O)[C@H](CCCNC(=N)N)NC(=O)[C@H](CCCCN)NC(=O)[C@H](CO)NC(=O)[C@H](CC(=O)O)NC(=O)[C@@H]3CSSC[C@H](NC(=O)[C@H](CCCNC(=N)N)NC(=O)[C@H](CC(C)C)NC(=O)CNC(=O)[C@H](CCC(=O)O)NC(=O)[C@H](CSSC[C@H](NC(=O)[C@@H](N)Cc4ccc(O)cc4)C(=O)N[C@@H](CCC(N)=O)C(=O)N[C@@H](CCCCN)C(=O)N[C@@H](Cc4c[nH]c5ccccc45)C(=O)N[C@@H](CCSC)C(=O)N[C@@H](Cc4c[nH]c5ccccc45)C(=O)N[C@@H](CCCCN)C(=O)N3)NC2=O)C(=O)N[C@@H](CCCCN)C(=O)N[C@@H](CC(C)C)C(=O)N[C@@H](Cc2c[nH]c3ccccc23)C(=O)N1)[C@@H](C)CC)C(N)=O` [compound 76]: the IC50 at hNav1.5 is 3.7 µM; at hNav1.4, 0.1 µM; on hNav1.7 it was 0.031 µM; on hNav1.3, 0.1 µM. The Nav1.4/Nav1.7 at hNav1.4 was 3.

On to `CC[C@H](C)[C@H](NC(=O)[C@H](CCCCN)NC(=O)[C@H](CCCCN)NC(=O)[C@H](CCCNC(=N)N)NC(=O)[C@@H]1CSSC[C@@H]2NC(=O)[C@H](C)NC(=O)[C@H](CCCNC(=N)N)NC(=O)[C@H](CCCCN)NC(=O)[C@H](CO)NC(=O)[C@H](CC(=O)O)NC(=O)[C@@H]3CSSC[C@H](NC(=O)[C@H](CCCNC(=N)N)NC(=O)[C@H](CC(C)C)NC(=O)CNC(=O)[C@H](CCC(=O)O)NC(=O)[C@H](CSSC[C@H](NC(=O)[C@@H](N)Cc4ccc(O)cc4)C(=O)N[C@@H](CCC(N)=O)C(=O)N[C@@H](CCCCN)C(=O)N[C@@H](Cc4c[nH]c5ccccc45)C(=O)N[C@@H](CCSC)C(=O)N[C@@H](Cc4c[nH]c5ccccc45)C(=O)N[C@@H]([C@@H](C)O)C(=O)N3)NC2=O)C(=O)N[C@@H](CCCCN)C(=O)N[C@@H](CC(C)C)C(=O)N[C@@H](Cc2c[nH]c3ccccc23)C(=O)N1)C(N)=O` [compound 88], for which the concentration for half-maximal inhibition (IC50) stood at 1.5 µM at hNav1.5, 0.11 µM on hNav1.4, 0.014 µM on hNav1.7 and 0.05 µM at hNav1.3. Also, the Nav1.4/Nav1.7 on hNav1.4 is listed as 8.
